US4774381A, “Herbicide resistant tobacco” (E. I. Du Pont de Nemours and Company, priority 1985, dated 1988)

Key:
[1] = tested on: acetolactate synthase (ALS), Isolate 10 (S4/+) extract; experiment: ALS activity assay in cell extracts; assay type: biochemical, Nicotiana tabacum
Method: (§1) Cell suspension cultures of normal (H1) and homozygous mutant (Isolate 16) cell lines were washed in C1 liquid medium. After washing, cells were extracted in a 100 mM potassium phosphate buffer (pH 7.5) containing 0.5 mM MgCl2, 1 mM sodium pyruvate, 0.5 mM thiamine pyrophosphate, 10 micromolar flavine-adenine dinucleotide (FAD) and 10 percent (by volume) glycerol. Polyclar AT (BDH Chemicals Ltd) was added to a final concentration of 250 mg per gram fresh weight of tissue. After centrifugation at 27,000xg for 15 minutes at 4°, an equal volume of a saturated solution of amminium sulfate was added to the supernatant fraction. The resultant precipitate (representing a 0 to 50 percent ammonium sulfate fraction) was redissolved in 100 mM potassium phosphate buffer (pH 7.5) containing 0.5 mM MgCl2, 1 mM sodium pyruvate, and salts were removed by passage through a Sephadex G-25 (Pharmacia PD-10) column.
(§2) ALS activity was assayed in a total volume of 500 microliters containing 100 microliters of the column eluate, 65 mM potassium phosphate buffer (pH 7.5) containing 10 mM MgCl2, 40 mM sodium pyruvate, 250 micromolar thiamine pyrophosphate, 23 micromolar FAD, […] After incubation at 30° for 90 minutes, 250 microliters of 6N H2 SO4 was added to each assay tube, and the tubes were incubated at 55° for 10 minutes to terminate the enzymatic reaction and achieve complete conversion of acetolactate to acetoin. Acetoin content was then measured by a modification of the procedure described by Westerfield, J. Biol. Chem. 161:495 (1945). To each tube was added sequentially 100 microliters 50 percent NaOH, 150 microliters 0.5 percent creatine, and 150 microliters 5 percent alpha-napthol (in 2.5N NaOH). Color development was accelerated by incubation at 55° for 10 minutes. Tubes were then centrifuged, and the optical density was read at 530 nm. Background optical densities, which were subtracted from the optical density values of the reactions, were determined for each extract from parallel assays to which the enzyme extract was added after the addition of 6N H2 SO4. Protein concentrations were measured with Bio-Rad Protein Assay reagent with bovine serum albumin as a standard. Data points and specific activities, which are set forth below and in FIG. 2, represent the average values of at least three independent determinations. ALS activities are presented in FIG. 2 as percent activity in the absence of herbicide.
(§3) Responses to chlorsulfuron were determined for ALS activities in extracts of cells suspension cultures derived from nine individuals that differed with resepct to the S4 mutation. As described above, these individuals were produced by self-fertilization of an S4/+ heterozygote, and their genotypes were established by means of progeny analysis. Callus and plant phenotypes were determined by growth responses of cell cultures and seedlings, respectively, on herbicide-supplemented medium. […] In contrast, all individuals homozygous for the S4 mutation contained a highly resistant form of the enzyme. […] The correlation between both callus and plant phenotype and the response of ALS activity in vitro to the herbicide is both absolute and quantitative.

[2] = tested on: acetolactate synthase (ALS), Isolate 23 (S4/+) extract; experiment: ALS activity assay in cell extracts; assay type: biochemical, Nicotiana tabacum
Method: as §1, §2, §3

[3] = tested on: Salmonella typhimurium; settings: in the presence of valine; reversed by isoleucine; cited from earlier work

COc1nc(C)nc(NC(=O)NS(=O)(=O)c2ccccc2Cl)n1 [Chlorsulfuron, chlorsulfuron]
Uninhibited activity (%) in the Presence of Chlorsulfuron ([1]; 10 ppb): 61% | Uninhibited activity (%) in the Presence of Chlorsulfuron ([1]; 30 ppb): 52% | Uninhibited activity (%) in the Presence of Chlorsulfuron ([1]; 100 ppb): 45% | Uninhibited activity (%) in the Presence of Chlorsulfuron ([2]; 10 ppb): 64% | Uninhibited activity (%) in the Presence of Chlorsulfuron ([2]; 30 ppb): 53% | Uninhibited activity (%) in the Presence of Chlorsulfuron ([2]; 100 ppb): 46%

COC(=O)c1ccccc1S(=O)(=O)NC(=O)Nc1nc(C)cc(C)n1 [Sulfometuron-methyl, sulfometuron-methyl]
growth effect [3]: inhibits growth
